Laboratory results reported in paper PMC11130353, “Using host-mimicking conditions and a murine cutaneous abscess model to identify synergistic antibiotic combinations effective against Pseudomonas aeruginosa” (Frontiers in Cellular and Infection Microbiology, 2024).
Converted amounts (≈) assume the structure as drawn. Read-outs that look alike come from different tables or passages of the source.

Tests used:
P. aeruginosa LESB58 [1] = test: microbe, parasite or virus in culture; format: cell-based, Pseudomonas aeruginosa; details: for MIC: Pseudomonas aeruginosa
P. aeruginosa PAO1 = test: Minimum inhibitory concentration, broth microdilution; format: cell-based, Pseudomonas aeruginosa; details: for MIC: Pseudomonas aeruginosa, PAO1
P. aeruginosa LESB58 [2] = test: Minimum bactericidal concentration; format: cell-based; details: Pseudomonas aeruginosa
Description: For susceptibility testing under standard conditions, bacteria were cultured in Muller Hinton Broth MHB (Fort Richards Laboratories). Host mimicking conditions in vitro were simulated using tissue culture medium (TCM) consisting of Dulbecco’s modified Eagle medium (DMEM; Gibco #11965) supplemented with FBS (Moregate Biotech) (5% v/v) and glucose (1% w/v). Further susceptibility testing was also conducted in MHB supplemented with FBS (5% v/v) and DMEM supplemented with glucose (1% w/v) and MHB (10% v/v).
The minimum bactericidal concentration (MBC) was determined by spotting 5 μL from wells of the MIC plate at or above the MIC onto antibiotic free dYT agar. Plates were incubated at 37°C for another 22-24 hours. The MBC was recorded as the lowest antibiotic concentration with no visible growth on agar plates and the median value reported.

[3] = female, Swiss Webster, mouse, in vivo, sc, 1 day
P. aeruginosa LESB58 [4] = test: Murine high density subcutaneous skin abscess model; format: in vivo, Pseudomonas aeruginosa; details: day 3; for Area of dermoncecrosis, Mean: female Swiss Webster mice
[5] = LESB58, TCM (DMEM + 1% Glucose + 10% MHB)
[6] = Colistin, tigecycline and tobramycin groups, compared to the vehicle control

With `CC(C)(O/N=C(\C(=O)N[C@@H]1C(=O)N2C(C(=O)[O-])=C(C[n+]3ccccc3)CS[C@H]12)c1csc(N)n1)C(=O)O` [CAZ, ceftazidime] as the molecule, how does the “Fold increase MIC of CAZ or CZA” value (P. aeruginosa LESB58 [1]; MHB + 5% FBS compared to MHB) read?
Its value is 8.

What about the “Fold increase MIC of CAZ or CZA” value (P. aeruginosa LESB58 [1]; MHB + 5% FBS compared to MHB, listed as ceftazidime) of the same molecule?
Its value is “eight”.

And the “Fold change TCM vs MHB (MIC)” value (P. aeruginosa LESB58 [1]; MIC in TCM vs MIC in MHB)?
Its value is 4.

What about the MIC (P. aeruginosa LESB58 [1]; LESB58, MHB + 5% FBS) of the same molecule?
Its MIC is 250 µg/mL.

And the MIC (P. aeruginosa LESB58 [1]; [5])?
Its MIC is 62.5 µg/mL.

And the MIC (P. aeruginosa LESB58 [1]; LESB58, read-out: MIC in MHB, MHB, 20-24 h)?
Its MIC is 31.2 µg/mL (≈ 57.2 µM).

What about the MIC (P. aeruginosa LESB58 [1]; LESB58, read-out: MIC in TCM, TCM (DMEM + 1% glucose + 5% FBS), 20-24 h) of the same molecule?
Its MIC is 125 µg/mL.

What about the “Fold increase MIC of CAZ or CZA” value (P. aeruginosa LESB58 [1]; TCM (DMEM + 1% Glucose + 10% MHB) compared to MHB) of the same molecule?
Its value is 2.

And the “Fold increase MIC of CAZ or CZA” value (P. aeruginosa LESB58 [1]; TCM (DMEM + 1% Glucose + 10% MHB) compared to MHB, listed as ceftazidime)?
The value was “two”.

And the “Fold increase MIC of CAZ or CZA” value (P. aeruginosa LESB58 [1]; TCM (DMEM + 1% glucose + 5% FBS) compared to MHB)?
The value was 4.

And the “Fold increase MIC of CAZ or CZA” value (P. aeruginosa LESB58 [1]; TCM (DMEM + 1% glucose + 5% FBS) compared to MHB, listed as ceftazidime)?
The value was “four”.

What about the “Fold change TCM vs MHB (MIC)” value (P. aeruginosa PAO1; MIC in TCM vs MIC in MHB) of the same molecule?
The value was 8.

And the MIC (P. aeruginosa PAO1; read-out: MIC in MHB)?
The MIC was 3.13 µg/mL (≈ 5.73 µM).

What about the MIC (P. aeruginosa PAO1; read-out: MIC in TCM) of the same molecule?
The MIC was 25 µg/mL (≈ 45.7 µM).

And the MBC (P. aeruginosa LESB58 [2]; LESB58, MHB)?
The MBC was > 500 µg/mL.

And the MBC (P. aeruginosa LESB58 [2]; LESB58, MHB + 5% FBS)?
The MBC was > 500 µg/mL.

What about the MBC (P. aeruginosa LESB58 [2]; [5]) of the same molecule?
The MBC was 500 µg/mL.

And the MBC (P. aeruginosa LESB58 [2]; LESB58, TCM (DMEM + 1% glucose + 5% FBS))?
Its MBC is > 500 µg/mL.

And the “Highest tolerated dose tested” value [3]?
Its value is 50 mg/mL.

What about the “Toxic (visible skin irritation, inflammation, blood vessels, swelling)” value [3] of the same molecule?
The value was 100 mg/mL.

What about the “CFU per abscess, Fold change” value (P. aeruginosa LESB58 [4]; Azithromycin group, compared to the vehicle control) of the same molecule?
Its value is -1.4.

What about the “CFU per abscess, Geometric mean” value (P. aeruginosa LESB58 [4]; Azithromycin group, CAZ or CZA 50 mg/mL, AZM 6.25 mg/mL) of the same molecule?
The value was 2.6 × 10^8 CFU per abscess.

What about the “Area of dermoncecrosis, Mean” value (P. aeruginosa LESB58 [4]; Azithromycin group, 50 μL s.c. into infected area 1 h after infection, CAZ or CZA 50 mg/mL, AZM 6.25 mg/mL, vehicle citric acid in saline) of the same molecule?
The value was 107.3 mm^2.

What about the “Area of dermoncecrosis, Mean” value (P. aeruginosa LESB58 [4]; Colistin, tigecycline and tobramycin groups (shared vehicle, CAZ and CZA mice), 50 μL s.c. 1 h after infection, CAZ or CZA 50, CST 1.25, TGC 2.5, TOB 2 mg/mL, vehicle 0.9% saline) of the same molecule?
The value was 85.3 mm^2.

And the “Area of dermoncecrosis, % reduction” value (P. aeruginosa LESB58 [4]; [6])?
Its value is 9.2%.

And the “CFU per abscess, Fold change” value (P. aeruginosa LESB58 [4]; [6])?
The value was -1.8.

And the “CFU per abscess, Geometric mean” value (P. aeruginosa LESB58 [4]; Colistin, tigecycline and tobramycin groups)?
Its value is 1.3 × 10^8 CFU per abscess.
